Results reported in patent US20130165508A1, “METHODS AND FORMULATIONS FOR TREATING INEFFECTIVE OR DECREASED ESOPHAGAL MOTILITY” (priority 2007, published 2013).

What was measured:
[1] = tested on: patients with severe ineffective esophageal motility; conditions: 50 mg oral doses, after 15 and 40 minutes; cited from earlier work
[2] = systemic dosing; cited from earlier work
[3] = Gastrointestinal absorption of oral bethanechol; type: in vivo; conditions: 50 mg oral dosage at about 22 percent absorption
Description: Thus, to achieve the beneficial effects of bethanechol on esophageal motility, systemic dosages in the range of 25-50 mg are required. Further, absorption of bethanechol at these dosage levels by the stomach and lower GI tract results in systemic distribution to other areas of the body such as the urinary tract and colon. A 50 mg oral dosage, for example, is believed to be about 22 percent absorbed in the stomach and intestines, which are rich in blood supply. This would result in a systemic level of about 11 mg of bethanechol. As described herein, however, bethanechol delivered locally to the pharynx and esophagus in a form that can more easily be absorbed by the mucosal lining of the pharynx and esophagus and delivered to the muscarinic receptors, principally the M2 receptors, can provide esophageal motility benefits, as well as increased salivation, while minimizing or avoiding systemic absorption and reducing or eliminating undesirable side effects. Enhancing the reduction or elimination of undesirable side effects is the fact that the esophagus has low vascularization, thus inhibiting the systemic absorption of bethanechol.

[4] = cited from earlier work
muscarinic M2 receptors = target: T1, muscarinic M2 receptors (Homo sapiens, UniProt P08172); conditions: cited from earlier work
T1 sequence (P08172 1-466): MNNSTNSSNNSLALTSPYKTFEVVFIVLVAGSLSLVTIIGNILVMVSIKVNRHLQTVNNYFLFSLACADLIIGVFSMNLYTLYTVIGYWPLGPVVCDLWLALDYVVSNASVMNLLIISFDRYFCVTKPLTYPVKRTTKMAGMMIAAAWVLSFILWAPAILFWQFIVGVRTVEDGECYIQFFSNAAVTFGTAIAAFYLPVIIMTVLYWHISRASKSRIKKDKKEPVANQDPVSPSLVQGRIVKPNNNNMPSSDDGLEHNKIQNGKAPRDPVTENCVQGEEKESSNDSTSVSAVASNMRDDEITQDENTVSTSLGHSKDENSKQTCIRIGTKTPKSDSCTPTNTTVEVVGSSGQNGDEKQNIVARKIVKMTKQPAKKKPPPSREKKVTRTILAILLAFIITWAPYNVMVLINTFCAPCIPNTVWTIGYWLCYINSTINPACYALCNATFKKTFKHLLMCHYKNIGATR

acetylcholinesterase = acetylcholinesterase (Homo sapiens, UniProt P22303); conditions: cited from earlier work
Sequence of acetylcholinesterase (P22303 32-614, species assumed): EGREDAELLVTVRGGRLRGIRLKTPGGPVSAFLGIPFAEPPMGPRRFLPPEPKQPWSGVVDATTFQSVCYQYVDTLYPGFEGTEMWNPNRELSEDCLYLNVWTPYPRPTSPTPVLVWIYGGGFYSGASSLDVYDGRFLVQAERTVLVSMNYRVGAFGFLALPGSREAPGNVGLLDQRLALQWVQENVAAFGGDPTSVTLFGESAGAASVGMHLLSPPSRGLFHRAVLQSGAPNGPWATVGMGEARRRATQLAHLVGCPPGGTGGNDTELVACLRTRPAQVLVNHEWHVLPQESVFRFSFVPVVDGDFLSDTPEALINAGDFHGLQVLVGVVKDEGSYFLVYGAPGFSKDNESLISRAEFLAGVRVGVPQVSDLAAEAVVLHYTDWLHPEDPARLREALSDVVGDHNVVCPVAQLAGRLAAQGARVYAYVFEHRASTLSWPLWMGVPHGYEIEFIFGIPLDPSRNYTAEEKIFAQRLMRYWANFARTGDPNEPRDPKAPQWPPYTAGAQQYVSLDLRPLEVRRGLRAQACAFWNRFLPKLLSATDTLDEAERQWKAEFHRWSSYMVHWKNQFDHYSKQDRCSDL

[5] = cited from earlier work; remark: listed apart in the source
[6] = Expected absorption of bethanechol from ten 0.1 ml sprays with absorption enhancer; type: in vivo
Source text: An exemplary method comprises treating ineffective esophageal motility while reducing or virtually eliminating an undesirable side effect, particularly a parasympathetic nervous system side effect, in a mammal in need of treatment by topically administering to the pharynx and esophagus of the mammal a therapeutically effective amount of bethanechol and an absorption enhancer to facilitate esophageal peristalsis so that the undesirable side effect, particularly the parasympathetic nervous system side effect, is reduced while maintaining the therapeutic esophageal peristaltic effect. A further exemplary method comprises delivering an amount of bethanechol of between about 3 mg and about 15 mg. A further exemplary method comprises introducing about ten 0.1 ml sprays comprising 5 mg bethanechol per ml and an absorption enhancer. Of the total 5 mg introduced, it is expected about 25 percent of the bethanechol, or about 1.25 mg, is adsorbed. The remaining 3.75 mg would proceed into the stomach and intestines, and, at about a 22 percent absorption rate would result in only about 0.8 mg bethanechol being systemically adsorbed, far below the threshold necessary to produce undesirable side effects.

For `CC(C[N+](C)(C)C)OC(N)=O` (centres unmarked) [bethanechol, 2-carbamoyloxpropyl-trimethyl-ammonium chloride], the “effect on esophageal motility” value [1] is listed as “improve esophageal motility”, the “undesirable side effects when provided systemically” value [2] is listed as “diarrhea, flushing, increased sweating, nausea, stomach pain, or gas, and, importantly, urinary urgency” and the “systemic level of bethanechol” value [3] is listed as “about 11 mg”. For the same molecule, the “fraction absorbed in the stomach and intestines” value ([4]; 50 mg oral dosage, "is believed") was “about 22%”, the “absorption by the mucosal lining of the gastrointestinal tract” value ([4]; in vivo) was “poorly absorbed” and the receptor selectivity (muscarinic M2 receptors) was “directly and selectively on the muscarinic M2 receptors”. For the same molecule, the inactivation by acetylcholinesterase (acetylcholinesterase) was “not inactivated by acetylcholinesterase”, the “stability and water solubility” value [5] was “stable, water-soluble” and the “bethanechol systemically adsorbed from the remaining 3.75 mg” value ([6]; remaining 3.75 mg in stomach and intestines at about 22 percent absorption rate) was “about 0.8 mg”. For the same molecule, the “fraction of bethanechol adsorbed from the spray” value ([6]; ten 0.1 ml sprays, 5 mg bethanechol per ml with absorption enhancer, total 5 mg) was “about 25%” and the “amount of bethanechol adsorbed from the spray” value ([6]; ten 0.1 ml sprays, total 5 mg) was “about 1.25 mg”.
